The results in this text go back to US4772619A, “[(1H-benzimidazol-2-ylsulfinyl)methyl]-2-pyridinamines” (G. D. Searle & Co., priority 1986, dated 1988).

As a reminder, the IC50 is the concentration needed to halve the response being measured.

One assay deals with T1, (H^+ +K^+)-ATPase (Canis lupus familiaris, UniProt P50996).
T1 construct: from tissue; host or cells: microsomes from glandular gastric mucosa (antral and cardiac regions removed) of mongrel dogs, lyophilized
Briefly: Inhibition of (H^+ +K^+)-ATPase from Canine Gastric Mucosa. Conditions: canine gastric mucosa microsomes, pH 6.0, 30 min preincubation with compound at 37°. Format: biochemical, canine (mongrel dogs).

The test system of the next assay is gastric acid secretion. Briefly: Inhibition of Gastric Acid Secretion in Gastric Fistula Beagle Dogs. Format: in vivo. Conditions: 3 mg/kg dose, i.v.; histamine-stimulated, four-hour period. From the text:
Inhibition of Gastric Acid Secretion in Gastric Fistula Beagle Dogs
Adult female beagle dogs weighing 6 to 11 kilograms obtained from Laboratory Research Enterprises (Kalamazoo, Mich.) or from Hazelton Research Animals (Cumberland, Va.) were surgically implanted with a simple Thomas-type gastric cannula. After recovery from surgery, the dogs were trained to stand quietly, fully conscious, in Pavlov-type dog restraining slings and were acclimated to intravenous infusion of histamine dihydrochloride. During the course of these studies, no dog was used more than once a week. All dogs were deprived of food, but not water, for 18 hours prior to each assay. […] The volume of gastric secretions, collected in plastic bottles affixed to the cannula, were measured to the nearest 0.1 ml at 30 minute intervals. […]
Intravenous dosing: Following a 30-minute basal secretion period, test compounds were administered intravenously (i.v.). […] The pH and titratable acidity were determined for samples from each collection period. […]
Data from each protocol were analyzed for three gastric sample variables: volume of gastric juice, acid concentration, and total acid output. Percent inhibition for each four-hour experimental period was determined for each parameter by comparison with 3 to 4 controls in which only food was given. Estimates of ED50 's were determined from dose response curves.

The structures appear in SMILES notation.

T1 sequence (P50996 whole entry): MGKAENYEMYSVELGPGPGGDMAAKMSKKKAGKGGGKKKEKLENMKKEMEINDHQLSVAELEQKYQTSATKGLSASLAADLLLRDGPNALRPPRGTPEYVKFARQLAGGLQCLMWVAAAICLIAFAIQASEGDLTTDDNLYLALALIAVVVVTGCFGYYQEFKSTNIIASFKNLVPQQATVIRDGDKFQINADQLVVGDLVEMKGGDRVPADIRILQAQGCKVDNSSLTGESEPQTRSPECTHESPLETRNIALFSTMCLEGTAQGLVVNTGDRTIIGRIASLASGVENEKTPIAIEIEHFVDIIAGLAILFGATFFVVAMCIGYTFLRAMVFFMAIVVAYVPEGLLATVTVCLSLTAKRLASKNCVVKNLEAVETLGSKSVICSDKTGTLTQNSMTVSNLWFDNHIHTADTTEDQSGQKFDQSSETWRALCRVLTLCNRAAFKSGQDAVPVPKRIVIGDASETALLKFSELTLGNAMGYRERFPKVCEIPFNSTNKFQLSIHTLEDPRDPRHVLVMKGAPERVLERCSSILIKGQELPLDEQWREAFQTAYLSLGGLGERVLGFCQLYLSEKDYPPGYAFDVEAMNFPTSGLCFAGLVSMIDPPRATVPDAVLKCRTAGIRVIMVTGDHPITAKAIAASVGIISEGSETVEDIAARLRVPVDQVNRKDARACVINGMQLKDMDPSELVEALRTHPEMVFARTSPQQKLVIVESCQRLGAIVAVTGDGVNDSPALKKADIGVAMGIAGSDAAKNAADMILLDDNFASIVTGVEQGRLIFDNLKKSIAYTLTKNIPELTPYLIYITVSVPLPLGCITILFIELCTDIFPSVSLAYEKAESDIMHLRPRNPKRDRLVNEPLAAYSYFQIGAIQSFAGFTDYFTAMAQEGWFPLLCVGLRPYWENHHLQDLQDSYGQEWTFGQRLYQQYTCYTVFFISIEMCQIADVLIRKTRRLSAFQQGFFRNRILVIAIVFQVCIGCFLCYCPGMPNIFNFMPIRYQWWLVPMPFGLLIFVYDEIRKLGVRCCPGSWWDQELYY
T1 sequence (P33704 whole entry partner): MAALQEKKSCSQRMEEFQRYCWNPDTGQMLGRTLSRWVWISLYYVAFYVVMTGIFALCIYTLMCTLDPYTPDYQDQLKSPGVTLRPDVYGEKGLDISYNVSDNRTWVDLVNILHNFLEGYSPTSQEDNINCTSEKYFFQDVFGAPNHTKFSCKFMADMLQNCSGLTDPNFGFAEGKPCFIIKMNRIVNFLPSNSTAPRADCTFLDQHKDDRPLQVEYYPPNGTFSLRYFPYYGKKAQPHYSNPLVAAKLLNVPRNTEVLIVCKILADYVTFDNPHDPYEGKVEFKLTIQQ
Protocol for (H^+ +K^+)-ATPase: Mongrel dogs weighing 15 to 25 kilograms were fasted for twenty-four hours, with water provided ad libitum. The animals were anesthetized with pentobarbital and the stomachs were removed. Subsequent tissue manipulations and subcellular fractionations were performed at 0° to 4° C. After the stomachs were cut open and rinsed with tap water, the antral and cardiac regions were removed and the remaining tissue was rinsed three times in saline. The glandular mucosa was removed mechanically, chopped finely in a medium containing 10 mM Tris hydrochloride (pH 7.4) and 250 mM sucrose, and homogenized. The homogenate was centrifuged at 20,000xg for twenty minutes and the pellet discarded. The supernatant was then centrifuged at 150,000xg for ninety minutes and the supernatant discarded. […]
(H^+ +K^+)-ATPase activity for each test compound was determined, in duplicate, by measuring the release of inorganic phosphate, which was assayed according to the method of J. ChandraRajan and L. Klein. […] At least fifteen minutes later, the optical absorbance at 870 nm (which was proportional to inorganic phosphate concentration up to 100 nmoles per tube, as determined by a standard curve) was obtained. […]
(H^+ +K^+)-ATPase activity is represented by the difference between the measured activities in the presence of potassium ion (K^+ -stimulated) and in the absence of potassium ion (basal).

For the molecule `Nc1ncccc1C[S+]([O-])c1nc2ccccc2[nH]1.O` (centres unmarked) [Example 3, 3-[(1H-benzimidazol-2-ylsulfinyl)methyl]-2-pyridinamine hydrate], the IC50 on (H^+ +K^+)-ATPase stood at 100 µM. In addition, the “Gastric-Fistula Beagle % Inhibition” value in the assay on gastric acid secretion is reported as 41%.
